Where “and” joins values, the source holds several entries; their conditions need not be identical. Equal values may be shown once.
Test system: NCI-H211 tumor spheroids, viability percent test/control
Assay: Anticancer human tumor NCI-H211 cell line growth inhibition;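 further: spheroids exposed to agents for seven days before readout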
Details: spheroids with HUVEC and MSC; for viability, T/C: stronger effect = lower value
Method in brief: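 Single agents and combinations were tested on spheroids built from tumor cells plus HUVEC and hMSC, at half-log dilutions starting at or near clinical Cmax, else 10 microM; final DMSO 0.25% (v/v).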

[1] = curve of first compound, second compound 30 pM
[2] = curve of first compound, second compound 94.9 pM
[3] = curve of first compound, second compound 0.0003 µM
[4] = curve of first compound, second compound 0.000949 µM
[5] = curve of first compound, second compound 0.003 µM
[6] = second compound 30 pM, first compound 0.0949 µM
[7] = second compound 30 pM, first compound 0.3 µM
[8] = second compound 30 pM, first compound 0.949 µM
[9] = second compound 30 pM, first compound 3 µM
[10] = second compound 94.9 pM, first compound 0.0949 µM
[11] = second compound 94.9 pM, first compound 0.3 µM
[12] = second compound 94.9 pM, first compound 0.949 µM
[13] = second compound 94.9 pM, first compound 3 µM
[14] = second compound 0.0003 µM, first compound 0.0949 µM
[15] = second compound 0.0003 µM, first compound 0.3 µM
[16] = second compound 0.0003 µM, first compound 0.949 µM
[17] = second compound 0.0003 µM, first compound 3 µM
[18] = second compound 0.000949 µM, first compound 0.0949 µM
[19] = second compound 0.000949 µM, first compound 0.3 µM
[20] = second compound 0.000949 µM, first compound 0.949 µM
[21] = second compound 0.000949 µM, first compound 3 µM
[22] = second compound 0.003 µM, first compound 0.0949 µM
[23] = second compound 0.003 µM, first compound 0.3 µM
[24] = second compound 0.003 µM, first compound 0.949 µM
[25] = second compound 0.003 µM, first compound 3 µM

Cc1cc(C)c(CNC(=O)c2cc(-c3ccc(CN4CCOCC4)cc3)cc3c2cnn3C2CCCC2)c(=O)[nH]1 + COc1cc2c(cc1O)CCNC21CSC2c3c(OC(C)=O)c(C)c4c(c3C(COC1=O)N1C(O)C3Cc5cc(C)c(OC)c(O)c5C(C21)N3C)OCO4
IC50 [1]: 2730 nM
IC50 [2]: < 31.6 nM
IC50 [3]: < 31.6 nM
IC50 [4]: < 31.6 nM
IC50 [5]: < 31.6 nM
viability, T/C (second compound 30 pM, first compound 0.0316 µM): 98.1%
viability, T/C (second compound 30 pM, first compound 0.1 µM): 113%
viability, T/C (second compound 30 pM, first compound 0.316 µM): 99.7%
viability, T/C (second compound 30 pM, first compound 1 µM): 73.2%
viability, T/C (second compound 30 pM, first compound 3.16 µM): 48.8%
viability, T/C (second compound 30 pM, first compound 10 µM): 7.15%
viability, T/C (second compound 94.9 pM, first compound 0.0316 µM): 17.6%
viability, T/C (second compound 94.9 pM, first compound 0.1 µM): 12.4%
viability, T/C (second compound 94.9 pM, first compound 0.316 µM): 13.5%
viability, T/C (second compound 94.9 pM, first compound 1 µM): 4.52%
viability, T/C (second compound 94.9 pM, first compound 3.16 µM): 2.44%
viability, T/C (second compound 94.9 pM, first compound 10 µM): 0.74%
viability, T/C (second compound 0.0003 µM, first compound 0.0316 µM): 0.75%
viability, T/C (second compound 0.0003 µM, first compound 0.1 µM): 0.76%
viability, T/C (second compound 0.0003 µM, first compound 0.316 µM): 0.76%
viability, T/C (second compound 0.0003 µM, first compound 1 µM): 0.76%
viability, T/C (second compound 0.0003 µM, first compound 3.16 µM): 1.22%
viability, T/C (second compound 0.0003 µM, first compound 10 µM): 1.03%
viability, T/C (second compound 0.000949 µM, first compound 0.0316 µM): 0.66%
viability, T/C (second compound 0.000949 µM, first compound 0.1 µM): 0.82%
viability, T/C (second compound 0.000949 µM, first compound 0.316 µM): 0.75%
viability, T/C (second compound 0.000949 µM, first compound 1 µM): 0.96%
viability, T/C (second compound 0.000949 µM, first compound 3.16 µM): 0.65%
viability, T/C (second compound 0.000949 µM, first compound 10 µM): 0.68%
viability, T/C (second compound 0.003 µM, first compound 0.0316 µM): 0.13%
viability, T/C (second compound 0.003 µM, first compound 0.1 µM): 0.11%
viability, T/C (second compound 0.003 µM, first compound 0.316 µM): 0.11%
viability, T/C (second compound 0.003 µM, first compound 1 µM): 0.61%
viability, T/C (second compound 0.003 µM, first compound 3.16 µM): 0.4%
viability, T/C (second compound 0.003 µM, first compound 10 µM): 0.33%

O=C(c1cc(Cc2n[nH]c(=O)c3ccccc23)ccc1F)N1CCN(C(=O)C2CC2)CC1 + COc1cc2c(cc1O)CCNC21CSC2c3c(OC(C)=O)c(C)c4c(c3C(COC1=O)N1C(O)C3Cc5cc(C)c(OC)c(O)c5C(C21)N3C)OCO4
IC50 [1]: 95.2 nM
IC50 [2]: < 94.9 nM
IC50 [3]: < 94.9 nM
IC50 [4]: < 94.9 nM
IC50 [5]: < 94.9 nM
viability, T/C [6]: 50.5%
viability, T/C [7]: 16.1%
viability, T/C [8]: 1.62%
viability, T/C [9]: 0.78%
viability, T/C (second compound 30 pM, first compound 9.49 µM): 0.73%
viability, T/C (second compound 30 pM, first compound 30 µM): 0.73%
viability, T/C [10]: 2.31%
viability, T/C [11]: 1.2%
viability, T/C [12]: 0.86%
viability, T/C [13]: 0.78%
viability, T/C (second compound 94.9 pM, first compound 9.49 µM): 0.78%
viability, T/C (second compound 94.9 pM, first compound 30 µM): 0.95%
viability, T/C [14]: 1.39%
viability, T/C [15]: 0.85%
viability, T/C [16]: 0.91%
viability, T/C [17]: 0.8%
viability, T/C (second compound 0.0003 µM, first compound 9.49 µM): 1.69%
viability, T/C (second compound 0.0003 µM, first compound 30 µM): 0.79%
viability, T/C [18]: 0.69%
viability, T/C [19]: 1.29%
viability, T/C [20]: 1.05%
viability, T/C [21]: 0.61%
viability, T/C (second compound 0.000949 µM, first compound 9.49 µM): 0.73%
viability, T/C (second compound 0.000949 µM, first compound 30 µM): 0.72%
viability, T/C [22]: 0.44%
viability, T/C [23]: 0.28%
viability, T/C [24]: 0.1%
viability, T/C [25]: 0.21%
viability, T/C (second compound 0.003 µM, first compound 9.49 µM): 0.25%
viability, T/C (second compound 0.003 µM, first compound 30 µM): 0.2%

COc1cc2c(cc1O)CCNC21CSC2c3c(OC(C)=O)c(C)c4c(c3C(COC1=O)N1C(O)C3Cc5cc(C)c(OC)c(O)c5C(C21)N3C)OCO4 (stereo not given)
viability, T/C (compound 94.9 pM): 21.3% [middle of 10 runs]
viability, T/C (compound 0.0003 µM): 0.79% [middle of 8 runs]
viability, T/C (compound 0.000949 µM): 0.7% [middle of 9 runs]
viability, T/C (compound 0.003 µM): 0.13% [middle of 6 runs]
IC50 (compound alone, run of 12/16/2019): 0.0665 nM and 0.0583 nM and 0.0631 nM

Cn1ncnc1[C@H]1c2n[nH]c(=O)c3cc(F)cc(c23)N[C@@H]1c1ccc(F)cc1 + COc1cc2c(cc1O)CCNC21CSC2c3c(OC(C)=O)c(C)c4c(c3C(COC1=O)N1C(O)C3Cc5cc(C)c(OC)c(O)c5C(C21)N3C)OCO4
IC50 [1]: < 9.49 nM
IC50 [2]: < 9.49 nM
IC50 [3]: < 9.49 nM
IC50 [4]: < 9.49 nM
IC50 [5]: < 9.49 nM
viability, T/C (second compound 30 pM, first compound 0.00949 µM): 0.83%
viability, T/C (second compound 30 pM, first compound 0.03 µM): 0.69%
viability, T/C [6]: 0.93%
viability, T/C [7]: 0.66%
viability, T/C [8]: 0.63%
viability, T/C [9]: 1%
viability, T/C (second compound 94.9 pM, first compound 0.00949 µM): 0.99%
viability, T/C (second compound 94.9 pM, first compound 0.03 µM): 0.82%
viability, T/C [10]: 0.72%
viability, T/C [11]: 0.82%
viability, T/C [12]: 0.82%
viability, T/C [13]: 0.85%
viability, T/C (second compound 0.0003 µM, first compound 0.00949 µM): 0.98%
viability, T/C (second compound 0.0003 µM, first compound 0.03 µM): 0.93%
viability, T/C [14]: 0.92%
viability, T/C [15]: 0.85%
viability, T/C [16]: 0.86%
viability, T/C [17]: 1.35%
viability, T/C (second compound 0.000949 µM, first compound 0.00949 µM): 1%
viability, T/C (second compound 0.000949 µM, first compound 0.03 µM): 0.89%
viability, T/C [18]: 0.76%
viability, T/C [19]: 1.25%
viability, T/C [20]: 0.97%
viability, T/C [21]: 0.5%
viability, T/C (second compound 0.003 µM, first compound 0.00949 µM): 0.48%
viability, T/C (second compound 0.003 µM, first compound 0.03 µM): 0.12%
viability, T/C [22]: 0.1%
viability, T/C [23]: 0.1%
viability, T/C [24]: 0.11%
viability, T/C [25]: 0.4%

Source: PubChem BioAssay AID1845209 (Molecular Pharmacology Branch, DTP, NCI, 2023)
